Measured values reported in paper PMC8539749 (Viruses, 2021).
Converted amounts (≈) assume the structure as drawn. “Also recorded” adds a separate entry of the source. Read-outs that look alike come from different tables or passages of the source. Positions of bridges follow the written chain, without caps; N, C: chain ends. Residues, ends and D or L forms follow the SMILES beside them.

How the values were obtained:
[1] = test system: SFTSV; test: microbe, parasite or virus in culture; format: cell-based, SFTSV HB29 strain; details: for IC50: Severe fever with thrombocytopenia syndrome virus
[2] = test system: SFTSV; details: cited from earlier work
[3] = test system: SFTSV; format: cell-based, SFTSV HB29 strain
[4] = test system: SFTSV; format: cell-based, SFTSV HB29 strain; remark: listed apart in the source
[5] = test system: SFTSV; format: cell-based, SFTSV HB29 strain; remark: listed apart in the source
[6] = test system: SFTSV Gc glycoprotein; details: cited from earlier work

NC(=O)c1nc(F)c[nH]c1=O [Favipiravir]
IC50 ([1]; Huh-7, read-out: Favipiravir IC50, alone): 1.25 ± 0.101 µg/mL (≈ 7.94 µM)
IC50 ([1]; Huh-7, read-out: Favipiravir IC50, with HKU-P1 62.5 μg/mL): 0.979 ± 0.194 µg/mL (≈ 6.23 µM)
IC50 ([1]; Huh-7, read-out: Favipiravir IC50, with HKU-P1 125 μg/mL): 0.864 ± 0.132 µg/mL (≈ 5.5 µM)
IC50 ([1]; Huh-7, read-out: Favipiravir IC50, with HKU-P1 250 μg/mL): 0.805 ± 0.105 µg/mL (≈ 5.12 µM)
anti-SFTSV activity in vitro and in vivo [2]: exhibit in vitro and in vivo activity against SFTSV
broad-spectrum antiviral effects [2]: broad-spectrum antiviral effects against various RNA viruses, including SFTSV

N=C(N)NCCC[C@@H]1NC(=O)[C@@H](NC(=O)[C@@H](N)CCCCN)CCCCNC(=O)[C@H](CO)NC(=O)CNC(=O)[C@H](Cc2ccccc2)NC(=O)CNC1=O [HKU-P1] (H-KKRGFGS; lactam 2-C)
anti-SFTSV activity (in words) [3]: best anti-SFTSV activity; also recorded: displayed anti-SFTSV effects
dose dependence of viral load reduction [3]: reduced SFTSV viral load in a dose-dependent manner
reduction in SFTSV viral RNA load [3]: > 50%
combination effect (in words) [1]: synergistic antiviral effects in vitro; also recorded: consistently synergistic with favipiravir at different concentrations
viral load reduction, post-infection group [4]: no significant viral load reduction
viral load reduction, pre-infection group [4]: no significant viral load reduction
SFTSV-NP expression (immunofluorescence) [5]: markedly reduced

Oc1c(Cl)cc(Cl)c(Cl)c1Cc1c(O)c(Cl)cc(Cl)c1Cl [hexachlorophene]
likely target [6]: likely targets the SFTSV Gc glycoprotein
anti-SFTSV activity [2]: inhibited SFTSV replication at low micromolar concentrations
